# Assay results from US9833497B2, “Human originated EGF domain proteins and use of the same” (CHENGDU SOURCEBIO LIMITED-LIABILITY COMPANY, priority 2013, dated 2017).
# Tests used:
# Type in all cases: cell-based
# [1] = tested on: Moraxella catarrhalis; experiment: MIC against Gram-negative bacteria: Moraxella catarrhalis; conditions: 5×10^5 CFU/mL
# Method in brief: (§1)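 LB broth cultures at McFarland 0.5, spun down, resuspended, diluted to 5×10^5 CFU/mL final. Two-fold serial dilutions of purified human EGF domain proteins, triplicate. 37° C, 175 rpm shaking. Endpoint: no visible growth.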
# [2] = tested on: Enterobacter cloacae; experiment: MIC against Gram-negative bacteria: Enterobacter cloacae; conditions: 5×10^5 CFU/mL
# Method in brief: as §1
# [3] = tested on: Pseudomonas aeruginosa; experiment: MIC against Gram-negative bacteria: Pseudomonas aeruginosa; conditions: 5×10^5 CFU/mL
# Method in brief: as §1
# [4] = tested on: E. coli DH5α; experiment: Antibacterial activity: MIC and growth curve against E. coli DH5α in 96-well plate; conditions: minimal inhibitory concentration against E. coli DH5α; 96-well plate, 5×10^5 CFU/mL, 37° C., judged after 8 h
# Method in brief: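 MIC taken as lowest protein level with no bacterial growth, tracked by A600 every 30 min during 37 °C, 175 rpm culture. Two-fold protein series 50-12.5 μg/mL final, triplicate wells, against 5×10^5 CFU/mL of LB-washed mid-log cells.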
# [5] = tested on: Serratia marcescens; experiment: MIC against Gram-negative bacteria: Serratia marcescens; conditions: 5×10^5 CFU/mL
# Method in brief: as §1
# [6] = tested on: Aeromonas hydrophila; experiment: MIC against Gram-negative bacteria: Aeromonas hydrophila; conditions: 5×10^5 CFU/mL
# Method in brief: as §1
# [7] = tested on: E. coli BL21; experiment: MIC against Gram-negative bacteria: E. coli BL21; conditions: 5×10^5 CFU/mL
# Method in brief: as §1
# [8] = tested on: Proteus mirabilis; experiment: MIC against Gram-negative bacteria: Proteus mirabilis; conditions: 5×10^5 CFU/mL
# Method in brief: as §1
# [9] = tested on: Citrobacter diversus; experiment: MIC against Gram-negative bacteria: Citrobacter diversus; conditions: 5×10^5 CFU/mL
# Method in brief: as §1
# [10] = tested on: Proteus vulgaris; experiment: MIC against Gram-negative bacteria: Proteus vulgaris; conditions: 5×10^5 CFU/mL
# Method in brief: as §1
# [11] = tested on: Klebsiella pneumonia; experiment: MIC against Gram-negative bacteria: Klebsiella pneumonia; conditions: 5×10^5 CFU/mL
# Method in brief: as §1
# [12] = Moraxella catarrhalis, 10 h cultivation at 37° C.
# [13] = Enterobacter cloacae, 10 h cultivation at 37° C.
# [14] = Pseudomonas aeruginosa, 10 h cultivation at 37° C.
# [15] = Serratia marcescens, 10 h cultivation at 37° C.
# [16] = Aeromonas hydrophila, 10 h cultivation at 37° C.
# [17] = Proteus mirabilis, 10 h cultivation at 37° C.
# [18] = Citrobacter diversus, 10 h cultivation at 37° C.
# [19] = Proteus vulgaris, 10 h cultivation at 37° C.
# [20] = Klebsiella pneumonia, 10 h cultivation at 37° C.
# [21] = Moraxella catarrhalis, 96-well plate, 37° C., 10 h
# [22] = Enterobacter cloacae, 96-well plate, 37° C., 10 h
# [23] = Pseudomonas aeruginosa, 96-well plate, 37° C., 10 h
# [24] = Serratia marcescens, 96-well plate, 37° C., 10 h
# [25] = Aeromonas hydrophila, 96-well plate, 37° C., 10 h
# [26] = Proteus mirabilis, 96-well plate, 37° C., 10 h
# [27] = Citrobacter diversus, 96-well plate, 37° C., 10 h
# [28] = Proteus vulgaris, 96-well plate, 37° C., 10 h
# [29] = Klebsiella pneumonia, 96-well plate, 37° C., 10 h
# [30] = 10 h cultivation at 37° C., two-fold serial dilution
# [31] = M. catarrhalis, 10 h cultivation at 37° C.
# [32] = E. cloacae, 10 h cultivation at 37° C.
# [33] = P. aeruginosa, 10 h cultivation at 37° C.
# [34] = S. marcescens, 10 h cultivation at 37° C.
# [35] = A. hydrophila, 10 h cultivation at 37° C.
# [36] = P. mirabilis, 10 h cultivation at 37° C.
# [37] = C. diversus, 10 h cultivation at 37° C.
# [38] = P. vulgaris, 10 h cultivation at 37° C.
# [39] = K. pneumonia, 10 h cultivation at 37° C.
substance,measurement,setting,value
PRT694 (DVDECRRVPPPCAPGRCENSPGSFRCVCGPGFRAGPRAAECL; listed as Homo sapiens),MIC M. catarrhalis,"[1]; 96-well plate, 37° C., 10 h",25 µg/mL
same,MIC E. cloacae,"[2]; 96-well plate, 37° C., 10 h",50 µg/mL
same,MIC P. aeruginosa,"[3]; 96-well plate, 37° C., 10 h",50 µg/mL
same,MIC,[4],50 µg/mL
same,MIC S. marcescens,"[5]; 96-well plate, 37° C., 10 h",50 µg/mL
same,MIC A. hydrophila,"[6]; 96-well plate, 37° C., 10 h",25 µg/mL
same,MIC E. coli BL21,"[7]; 96-well plate, 37° C., 10 h",25 µg/mL
same,MIC P. mirabilis,"[8]; 96-well plate, 37° C., 10 h",50 µg/mL
same,MIC C. diversus,"[9]; 96-well plate, 37° C., 10 h",12.5 µg/mL
same,MIC P. vulgaris,"[10]; 96-well plate, 37° C., 10 h",12.5 µg/mL
same,MIC K. pneumonia,"[11]; 96-well plate, 37° C., 10 h",25 µg/mL
PRT1410 (IEGCPGLCNSNGRCTLDQNGWHCVCQPGWRGAGCD; listed as Homo sapiens),MIC against M. catarrhalis,[1]; [12],100 µg/mL
same,MIC against E. cloacae,[2]; [13],25 µg/mL
same,MIC against P. aeruginosa,[3]; [14],25 µg/mL
same,MIC,[4],25 µg/mL
same,MIC against S. marcescens,[5]; [15],12.5 µg/mL
same,MIC against A. hydrophila,[6]; [16],12.5 µg/mL
same,MIC against E. coli BL21,[7]; 10 h cultivation at 37° C.,12.5 µg/mL
same,MIC against P. mirabilis,[8]; [17],50 µg/mL
same,MIC against C. diversus,[9]; [18],50 µg/mL
same,MIC against P. vulgaris,[10]; [19],12.5 µg/mL
same,MIC against K. pneumonia,[11]; [20],50 µg/mL
PRT1450 (VPSNCDCLNGGTCVSNKYFSNIHWCNCPKKFGGQHCE; listed as Homo sapiens),MIC against M. catarrhalis,[1]; [12],12.5 µg/mL
same,MIC against E. cloacae,[2]; [13],25 µg/mL
same,MIC against P. aeruginosa,[3]; [14],50 µg/mL
same,MIC,[4],12.5 µg/mL
same,MIC against S. marcescens,[5]; [15],25 µg/mL
same,MIC against A. hydrophila,[6]; [16],50 µg/mL
same,MIC against E. coli BL21,[7]; 10 h cultivation at 37° C.,25 µg/mL
same,MIC against P. mirabilis,[8]; [17],25 µg/mL
same,MIC against C. diversus,[9]; [18],25 µg/mL
same,MIC against P. vulgaris,[10]; [19],12.5 µg/mL
same,MIC against K. pneumonia,[11]; [20],12.5 µg/mL
PRT85 (KLHFCDSGPCKNSGFCSERWGSFSCDCPVGFGGKDCQ; listed as Homo sapiens),MIC (μg/mL) M. catarrhalis,[1]; [21],50 µg/mL
same,MIC (μg/mL) E. cloacae,[2]; [22],25 µg/mL
same,MIC (μg/mL) P. aeruginosa,[3]; [23],12.5 µg/mL
same,MIC,[4],12.5 µg/mL
same,MIC (μg/mL) S. marcescens,[5]; [24],50 µg/mL
same,MIC (μg/mL) A. hydrophila,[6]; [25],12.5 µg/mL
same,MIC (μg/mL) E. coli BL21,"[7]; 96-well plate, 37° C., 10 h",12.5 µg/mL
same,MIC (μg/mL) P. mirabilis,[8]; [26],50 µg/mL
same,MIC (μg/mL) C. diversus,[9]; [27],25 µg/mL
same,MIC (μg/mL) P. vulgaris,[10]; [28],12.5 µg/mL
same,MIC (μg/mL) K. pneumonia,[11]; [29],12.5 µg/mL
PRT1080 (IQSYCAKHLKCSQKCDQNKFSVKCSCYEGWVLEPDGESCR; listed as Homo sapiens),MIC M. catarrhalis,[1]; [30],12.5 µg/mL
same,MIC E. cloacae,[2]; [30],50 µg/mL
same,MIC P. aeruginosa,[3]; [30],12.5 µg/mL
same,MIC,[4],50 µg/mL
same,MIC S. marcescens,[5]; [30],50 µg/mL
same,MIC A. hydrophila,[6]; [30],12.5 µg/mL
same,MIC E. coli BL21,[7]; [30],25 µg/mL
same,MIC P. mirabilis,[8]; [30],12.5 µg/mL
same,MIC C. diversus,[9]; [30],12.5 µg/mL
same,MIC P. vulgaris,[10]; [30],25 µg/mL
same,MIC K. pneumonia,[11]; [30],25 µg/mL
PRT827 (HLECSCHNNSTCEPATGTCRCGPGFYGQACE; listed as Homo sapiens),MIC (μg/mL) M. catarrhalis,[1]; [31],25 µg/mL
same,MIC (μg/mL) E. cloacae,[2]; [32],50 µg/mL
same,MIC (μg/mL) P. aeruginosa,[3]; [33],12.5 µg/mL
same,MIC,[4],12.5 µg/mL
same,MIC (μg/mL) S. marcescens,[5]; [34],50 µg/mL
same,MIC (μg/mL) A. hydrophila,[6]; [35],25 µg/mL
same,MIC (μg/mL) E. coli BL21,[7]; 10 h cultivation at 37° C.,25 µg/mL
same,MIC (μg/mL) P. mirabilis,[8]; [36],50 µg/mL
same,MIC (μg/mL) C. diversus,[9]; [37],12.5 µg/mL
same,MIC (μg/mL) P. vulgaris,[10]; [38],12.5 µg/mL
same,MIC (μg/mL) K. pneumonia,[11]; [39],12.5 µg/mL
PRT724 (DINECEQFGTCPQHCRNTKGSYECVCADGFTSMSDRPGKRCA; listed as Homo sapiens),MIC M. catarrhalis,"[1]; 96-well plate, 37° C., 10 h",12.5 µg/mL
same,MIC E. cloacae,"[2]; 96-well plate, 37° C., 10 h",25 µg/mL
same,MIC P. aeruginosa,"[3]; 96-well plate, 37° C., 10 h",12.5 µg/mL
same,MIC,[4],12.5 µg/mL
same,MIC S. marcescens,"[5]; 96-well plate, 37° C., 10 h",25 µg/mL
same,MIC A. hydrophila,"[6]; 96-well plate, 37° C., 10 h",12.5 µg/mL
same,MIC E. coli BL21,"[7]; 96-well plate, 37° C., 10 h",12.5 µg/mL
same,MIC P. mirabilis,"[8]; 96-well plate, 37° C., 10 h",25 µg/mL
same,MIC C. diversus,"[9]; 96-well plate, 37° C., 10 h",25 µg/mL
same,MIC P. vulgaris,"[10]; 96-well plate, 37° C., 10 h",12.5 µg/mL
same,MIC K. pneumonia,"[11]; 96-well plate, 37° C., 10 h",12.5 µg/mL
PRT1335 (MTDICKSDNPCHRNANCTTVAPGRTECICQKGYVGDGLTCY; listed as Homo sapiens),MIC against M. catarrhalis,[1]; [21],50 µg/mL
same,MIC against E. cloacae,[2]; [22],50 µg/mL
same,MIC against P. aeruginosa,[3]; [23],50 µg/mL
same,MIC,[4],50 µg/mL
same,MIC against S. marcescens,[5]; [24],50 µg/mL
same,MIC against A. hydrophila,[6]; [25],12.5 µg/mL
same,MIC against E. coli BL21,"[7]; 96-well plate, 37° C., 10 h",12.5 µg/mL
same,MIC against P. mirabilis,[8]; [26],25 µg/mL
same,MIC against C. diversus,[9]; [27],25 µg/mL
same,MIC against P. vulgaris,[10]; [28],12.5 µg/mL
same,MIC against K. pneumonia,[11]; [29],12.5 µg/mL
PRT244 (TCAMINCQYSCEDTEEGPQCLCPSSGLRLAPNGRDCL; listed as Homo sapiens),MIC (μg/mL) M. catarrhalis,[1]; [31],25 µg/mL
same,MIC (μg/mL) E. cloacae,[2]; [32],12.5 µg/mL
same,MIC (μg/mL) P. aeruginosa,[3]; [33],12.5 µg/mL
same,MIC,[4],50 µg/mL
same,MIC (μg/mL) S. marcescens,[5]; [34],12.5 µg/mL
same,MIC (μg/mL) A. hydrophila,[6]; [35],25 µg/mL
same,MIC (μg/mL) E. coli BL21,[7]; 10 h cultivation at 37° C.,12.5 µg/mL
same,MIC (μg/mL) P. mirabilis,[8]; [36],12.5 µg/mL
same,MIC (μg/mL) C. diversus,[9]; [37],12.5 µg/mL
same,MIC (μg/mL) P. vulgaris,[10]; [38],25 µg/mL
same,MIC (μg/mL) K. pneumonia,[11]; [39],12.5 µg/mL
PRT1147 (ELDACSFKPCKNNGSCINKRENWDEQAYECVCHPPFTGKNCS; listed as Homo sapiens),MIC M. catarrhalis,[1]; [30],12.5 µg/mL
same,MIC E. cloacae,[2]; [30],50 µg/mL
same,MIC P. aeruginosa,[3]; [30],50 µg/mL
same,MIC,[4],50 µg/mL
same,MIC S. marcescens,[5]; [30],25 µg/mL
same,MIC A. hydrophila,[6]; [30],25 µg/mL
same,MIC E. coli BL21,[7]; [30],12.5 µg/mL
same,MIC P. mirabilis,[8]; [30],25 µg/mL
same,MIC C. diversus,[9]; [30],25 µg/mL
same,MIC P. vulgaris,[10]; [30],50 µg/mL
same,MIC K. pneumonia,[11]; [30],12.5 µg/mL
